What was measured:
AsPC-1 pancreatic cancer = test: Pancreatic tumor growth inhibition studies, orthotopic AsPC-1 pancreatic cancer; format: in vivo, nude mice; settings: I.P. 150 mg/kg daily for 13 days, 10 animals, sacrificed on day 24; control PBS; FIG. 6
Protocol: In these experiments, the effect of a purified stereoisomer of MNTX on AsPC-1 pancreatic cancer was evaluated.
(§1) Nude mice weighing approximately 25 grams were used. The tail of the pancreas was exposed through an abdominal incision. Then 1×10^6 AsPC-1 cells were injected into the pancreas. The pancreas was replaced in the peritoneal cavity and the incision was closed. A 3-5 mm diameter tumor developed in 10 days.
MNTX1 was formulated at 10 mg/mL in PBS. The 150 mg/kg dose was accomplished by a […] injection of a 10 mg/mL stock solution. Injections were done daily for 13 days, and the 10 animals were subsequently sacrificed on day 24. Treatments start after 10 days of AsPC1 pancreatic tumor cell orthotopic implantation. After two more weeks, the mice are sacrificed and tumor weight is measured for the evaluation of tumor growth inhibition effects. For control, four mice were injected according to the above schedule with PBS only. They were also sacrificed on day 24. FIG. 5 provides a schematic illustrating the experimental design of the pancreatic tumor growth inhibition studies. I.P. treatments (150 mg MNTX1/kg/each injection, 300 μl of 10 mg/ml for each injection totally for 13 times, animal number=10).
FIG. 6 provides experimental results for the pancreatic tumor growth inhibition studies showing the effects of MNTX1 on AsPC-1 pancreatic cancer. […]

[1] = Escalating dose study on mice; format: in vivo; settings: intraperitoneal injection
Protocol: The MNTX1 dose was established using an escalating dose study on mice. An intraperitoneal injection dose of 150 mg/kg was chosen. For a dosage of 400 mg/kg, 2 of 2 died, for a dosage of 200 mg/kg, 1 of 4 died; and for a dosage of 150 mg/kg (300 μl of 10 mg/ml), 3 of 3 survived. Therefore, a dose of 150 mg/kg (Intraperitoneal injection, I.P.) was used for each administration in the following orthotopic pancreatic tumor growth inhibition experiments.

AsPC-1 cells = test: Comparative studies, orthotopic AsPC-1 pancreatic tumor in nude mice; format: in vivo; settings: subQ close to the pancreas, one injection per day for 10 days, total dose 20 mg/mouse; sacrificed at day 24; FIG. 4
Protocol: as §1, with “In these experiments nude mice” for “Nude mice”, “used. First, the” for “used. The”
MNTX was dissolved at 40 mg/mL in phosphate buffered saline (PBS) and then formulated to 100 uL (50 uL drug and 50 uL PBS) and injected subQ close to the pancreas. One injection per day was given for 10 days. The total dose was therefore 20 mg/mouse. For control and comparison, experiments on mice that were 1) not treated, 2) treated with light alone, 3) treated with gemcitibine alone, and 4) treated with Avastin alone using essentially the same procedure as described above were performed. The mice were sacrificed at day 24 and tumor weight was determined.
FIG. 4 provides local tumor burden experimental results for comparative studies involving administration of MNTX, Avastin and Gemcitabine anti-tumor agents. Tumor weight (mg) is shown for tumor conditions of: no treatment (NT); treatment with light alone (light alone); treatment with Gemcitabine alone (GEM); treatment with Avastin alone (Avastin) and treatment with MNTX (MNTX).

endothelial cells = settings: cited from earlier work
VEGF expression = settings: cited from earlier work
[2] = cited from earlier work

C[N@+]1(CC2CC2)CC[C@@]23c4c5ccc(O)c4CC1C2(O)CCC(=O)C3O5 (single isomer, unassigned; (-)) [MNTX, (−)-R-naltrexone methobromide]
tumor weight measured at sacrifice (AsPC-1 pancreatic cancer): measurably superior to the control | survived ([1]; dosage of 150 mg/kg (300 μl of 10 mg/ml)): 3 of 3 | died ([1]; dosage of 200 mg/kg): 1 of 4 | died ([1]; dosage of 400 mg/kg): 2 of 2 | tumor weight measured at sacrifice (AsPC-1 cells): measurably superior to the control, Gemcitabine and Avastin conditions | synergy with Avastin to inhibit VEGF expression (endothelial cells): synergistic | synergy with 5-fluorouracil (endothelial cells; in endothelial cells): synergistic

COc1ccc2cc3[n+](cc2c1OC)CCc1cc2c(cc1-3)OCO2 [berberine]
inhibition of VEGF expression (VEGF expression): some inhibition

C[N@+]1(CC2CC2)CC[C@]23c4c5ccc(O)c4O[C@H]2C(=O)CC[C@@]3(O)[C@H]1C5 [methylnaltrexone, reference compound]
potentiation of the cytotoxic effect of 5-fluorouracil (endothelial cells): ~700 ×

α-interferon
adverse effects ([2]; clinically tested for MD): high rate of adverse effects | clinical efficacy for MD ([2]; clinically tested for MD): ineffective

B1: Lucentis: humanized anti-VEGF antibody fragment that inhibits VEGF activity by competitive binding (antibody, chains of the INN, looked up, V domains shown)
VH: EVQLVESGGGLVQPGGSLRLSCAASGYDFTHYGMNWVRQAPGKGLEWVGWINTYTGEPTYAADFKRRFTFSLDTSKSTAYLQMNSLRAEDTAVYYCAKYPYYYGTSHWYFDVWGQGTLVTVSS
VL: DIQLTQSPSSLSASVGDRVTITCSASQDISNYLNWYQQKPGKAPKVLIYFTSSLHSGVPSRFSGSGSGTDFTLTISSLQPEDFATYYCQQYSTVPWTFGQGTKVEIK
modifications: Fab
patients maintaining their baseline vision ([2]; wet macular degeneration, after 12 months of treatment): About 95%

Reference: US9527858B2, “Compounds and compositions for use in phototherapy and in treatment of ocular neovascular disease and cancers” (Mallinckrodt LLC, priority 2009, dated 2016)
